Tests used:
[1] = target: T1, Retinoic acid receptor RXR-alpha (Homo sapiens, UniProt P19793); assay: Transcriptional activation in CV-1 cells expressing retinoid X receptor RXR alpha; type: functional, cell-based
T1 sequence (P19793 whole entry): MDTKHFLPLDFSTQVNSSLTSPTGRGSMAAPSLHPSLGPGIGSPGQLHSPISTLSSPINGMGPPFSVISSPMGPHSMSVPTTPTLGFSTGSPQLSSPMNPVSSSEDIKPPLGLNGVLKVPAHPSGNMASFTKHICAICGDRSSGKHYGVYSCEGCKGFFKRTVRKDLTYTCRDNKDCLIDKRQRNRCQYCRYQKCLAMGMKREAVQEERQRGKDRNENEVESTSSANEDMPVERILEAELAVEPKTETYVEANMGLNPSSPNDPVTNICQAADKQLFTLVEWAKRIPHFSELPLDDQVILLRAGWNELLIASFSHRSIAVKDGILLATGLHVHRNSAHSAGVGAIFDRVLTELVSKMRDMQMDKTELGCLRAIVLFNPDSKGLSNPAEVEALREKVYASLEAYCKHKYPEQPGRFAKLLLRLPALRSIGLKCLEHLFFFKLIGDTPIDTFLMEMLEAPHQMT

[2] = target: T1, Retinoic acid receptor RXR-alpha; assay: Inhibition of [3H]9-cis-RA binding to RXR alpha receptor
[3] = target: T2, Retinoic acid receptor alpha (Homo sapiens, UniProt P10276); assay: Transcriptional activation in CV-1 cells expressing retinoic acid receptor RAR alpha; not active; type: functional, cell-based
T2 sequence (P10276 whole entry): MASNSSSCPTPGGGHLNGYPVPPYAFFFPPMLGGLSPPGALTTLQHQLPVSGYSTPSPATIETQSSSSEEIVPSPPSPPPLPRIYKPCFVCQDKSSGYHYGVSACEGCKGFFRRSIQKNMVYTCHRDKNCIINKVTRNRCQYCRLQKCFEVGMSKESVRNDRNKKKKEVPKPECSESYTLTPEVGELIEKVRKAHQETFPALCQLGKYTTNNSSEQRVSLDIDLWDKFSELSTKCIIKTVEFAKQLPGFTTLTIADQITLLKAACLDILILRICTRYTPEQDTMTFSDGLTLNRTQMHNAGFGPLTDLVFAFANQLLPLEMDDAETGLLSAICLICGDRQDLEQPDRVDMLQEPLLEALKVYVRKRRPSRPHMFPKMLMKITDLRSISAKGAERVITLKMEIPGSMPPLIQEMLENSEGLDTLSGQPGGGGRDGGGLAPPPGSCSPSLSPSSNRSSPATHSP

[4] = target: T3, Retinoic acid receptor beta (Homo sapiens, UniProt P10826); assay: Inhibition of [3H]ATRA binding to RAR beta receptor
T3 sequence (P10826 whole entry): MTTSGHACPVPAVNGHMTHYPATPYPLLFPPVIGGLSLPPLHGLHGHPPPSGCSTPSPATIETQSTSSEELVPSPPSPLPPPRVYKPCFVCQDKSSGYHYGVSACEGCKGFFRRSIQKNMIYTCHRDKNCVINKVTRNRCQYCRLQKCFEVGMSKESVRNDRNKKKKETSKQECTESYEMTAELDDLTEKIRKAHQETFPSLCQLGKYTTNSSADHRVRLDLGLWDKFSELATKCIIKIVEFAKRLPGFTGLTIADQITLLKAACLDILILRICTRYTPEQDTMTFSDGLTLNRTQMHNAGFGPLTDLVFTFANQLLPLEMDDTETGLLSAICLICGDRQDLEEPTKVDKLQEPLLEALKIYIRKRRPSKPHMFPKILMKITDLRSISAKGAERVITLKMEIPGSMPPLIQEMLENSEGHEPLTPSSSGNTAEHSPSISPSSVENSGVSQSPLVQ

[5] = target: T4, Retinoic acid receptor RXR-beta (Homo sapiens, UniProt P28702); assay: Inhibition of [3H]9-cis-RA binding to RXR beta receptor
T4 sequence (P28702 whole entry): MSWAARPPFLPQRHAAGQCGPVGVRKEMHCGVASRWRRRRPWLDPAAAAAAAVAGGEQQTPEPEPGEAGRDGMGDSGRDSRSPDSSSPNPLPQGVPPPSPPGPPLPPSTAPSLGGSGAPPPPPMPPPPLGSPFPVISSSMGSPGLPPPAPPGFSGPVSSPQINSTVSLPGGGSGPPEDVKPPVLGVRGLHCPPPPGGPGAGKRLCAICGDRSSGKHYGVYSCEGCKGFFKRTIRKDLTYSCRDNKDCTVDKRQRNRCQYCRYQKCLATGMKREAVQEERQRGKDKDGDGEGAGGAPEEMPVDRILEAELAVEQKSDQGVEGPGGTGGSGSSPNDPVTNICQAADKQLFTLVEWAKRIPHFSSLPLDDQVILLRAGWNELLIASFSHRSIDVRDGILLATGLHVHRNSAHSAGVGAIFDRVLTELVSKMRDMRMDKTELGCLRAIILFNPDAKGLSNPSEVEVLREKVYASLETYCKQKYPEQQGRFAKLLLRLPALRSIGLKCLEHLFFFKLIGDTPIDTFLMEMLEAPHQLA

[6] = target: T5, Retinoic acid receptor RXR-gamma (Homo sapiens, UniProt P48443); assay: Transcriptional activation in CV-1 cells expressing retinoid X receptor RXR gamma; type: functional, cell-based
T5 sequence (P48443 whole entry): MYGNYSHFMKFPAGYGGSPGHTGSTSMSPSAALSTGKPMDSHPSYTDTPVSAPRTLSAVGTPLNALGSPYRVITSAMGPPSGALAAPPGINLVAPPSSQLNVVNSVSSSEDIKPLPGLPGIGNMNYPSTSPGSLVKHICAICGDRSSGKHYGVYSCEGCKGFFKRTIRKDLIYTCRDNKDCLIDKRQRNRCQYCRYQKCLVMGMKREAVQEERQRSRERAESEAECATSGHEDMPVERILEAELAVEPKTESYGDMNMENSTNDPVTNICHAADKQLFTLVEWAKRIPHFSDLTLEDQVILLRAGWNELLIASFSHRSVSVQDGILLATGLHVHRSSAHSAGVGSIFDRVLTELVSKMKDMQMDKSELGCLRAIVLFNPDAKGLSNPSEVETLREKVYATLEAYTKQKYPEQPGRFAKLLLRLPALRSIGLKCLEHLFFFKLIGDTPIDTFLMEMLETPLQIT

[7] = target: T5, Retinoic acid receptor RXR-gamma; assay: Inhibition of [3H]9-cis-RA binding to RXR gamma receptor
[8] = target: T6, Retinoic acid receptor gamma (Homo sapiens, UniProt P13631); assay: Inhibition of [3H]ATRA binding to RAR gamma receptor
T6 sequence (P13631 whole entry): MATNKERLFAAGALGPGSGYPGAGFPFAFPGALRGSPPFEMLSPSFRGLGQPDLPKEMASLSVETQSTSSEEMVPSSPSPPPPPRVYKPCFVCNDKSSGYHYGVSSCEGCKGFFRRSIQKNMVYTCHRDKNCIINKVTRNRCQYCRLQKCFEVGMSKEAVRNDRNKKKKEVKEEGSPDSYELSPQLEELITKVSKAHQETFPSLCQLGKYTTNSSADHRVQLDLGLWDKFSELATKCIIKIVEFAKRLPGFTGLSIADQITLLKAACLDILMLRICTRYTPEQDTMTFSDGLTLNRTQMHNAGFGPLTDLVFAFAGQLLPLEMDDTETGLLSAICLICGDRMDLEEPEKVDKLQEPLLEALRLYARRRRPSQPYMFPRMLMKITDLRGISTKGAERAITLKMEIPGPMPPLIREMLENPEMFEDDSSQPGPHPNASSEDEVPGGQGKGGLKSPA

[9] = target: T2, Retinoic acid receptor alpha; assay: Inhibition of [3H]ATRA binding to RAR alpha receptor
[10] = target: T4, Retinoic acid receptor RXR-beta; assay: Transcriptional activation in CV-1 cells expressing retinoid X receptor RXR beta; type: functional, cell-based
[11] = target: T3, Retinoic acid receptor beta; conditions: cv-1
[12] = target: T6, Retinoic acid receptor gamma; conditions: cv-1
[13] = target: T3, Retinoic acid receptor beta; assay: Transcriptional activation in CV-1 cells expressing retinoic acid receptor RAR beta; type: functional, cell-based
[14] = target: T6, Retinoic acid receptor gamma; assay: Transcriptional activation in CV-1 cells expressing retinoic acid receptor RAR gamma; type: functional, cell-based
[15] = target: T2, Retinoic acid receptor alpha; assay: Transcriptional activation in CV-1 cells expressing retinoic acid receptor RAR alpha; inactive; type: functional, cell-based

CC(/C=C/C1(c2ccc3c(c2)C(C)(C)CCC3(C)C)CCCC1)=C\C(=O)O
EC50 [1]: 51 nM
Ki [2]: 92 nM
EC50 [3]: Not Active
Ki [4]: > 1000 nM
Ki [5]: 124 nM
EC50 [6]: 192 nM
Ki [7]: 172 nM
Ki [8]: > 1000 nM
Ki [9]: > 1000 nM
EC50 [10]: 127 nM
EC50 [11]: Not Active
EC50 [12]: Not Active

CC(/C=C/C1(c2ccc3c(c2)C(C)(C)CCC3(C)C)CC1)=C\C(=O)O
EC50 [13]: 287 nM
EC50 [1]: 23 nM
Ki [2]: 3 nM
EC50 [3]: Not Active
Ki [4]: > 1000 nM
Ki [5]: 7 nM
EC50 [6]: 24 nM
Ki [7]: 6 nM
Ki [8]: > 1000 nM
Ki [9]: > 1000 nM
EC50 [14]: 399 nM
EC50 [10]: 19 nM

C=C(c1ccc(C(=O)O)cc1)c1ccc2c(c1)C(C)(C)CCC2(C)C
Ki [2]: 150 nM
EC50 [3]: Not Active
Ki [4]: 909 nM
Ki [5]: 199 nM
EC50 [6]: 404 nM
Ki [7]: 290 nM
Ki [8]: 887 nM
Ki [9]: 944 nM
EC50 [10]: 486 nM

CC(/C=C/C1(c2cc3c(cc2C)C(C)(C)CCC3(C)C)CCCC1)=C\C(=O)O
EC50 [13]: 809 nM
EC50 [1]: 2520 nM
Ki [2]: > 1000 nM
EC50 [3]: Not Active
Ki [4]: > 1000 nM
Ki [5]: > 1000 nM
EC50 [6]: 2710 nM
Ki [7]: > 1000 nM
Ki [8]: > 1000 nM
Ki [9]: > 1000 nM
EC50 [14]: 1780 nM
EC50 [10]: 2000 nM

CC(/C=C/C1(c2cc3c(cc2C)C(C)(C)CCC3(C)C)CC1)=C\C(=O)O
Ki [2]: 4 nM
EC50 [15]: Not Active
Ki [4]: > 1000 nM
Ki [5]: 4 nM
EC50 [6]: 7 nM
Ki [7]: 5 nM
Ki [8]: > 1000 nM
Ki [9]: > 1000 nM
EC50 [10]: 13 nM
EC50 [11]: Not Active
